Assay results published in patent publication US5026848A, “Novel generation of heteroaryloxyalkyl heterocycles with antipicornaviruses activities” (Synphar Laboratories Incorporated, priority 1988, dated 1991).
Where two headings read alike, the source gives them in different places.

Legend:
[1] = system: Rhinovirus 15; test: Anti-rhinovirus activity, cytopathic effect inhibition / neutral red dye uptake, type 15; assay type: cell-based; details: Enterovirus, WI-38; Table II; one of seven commonest serotypes; read-out: MIC 50 Rhinovirus Type 15
[2] = system: WI38 cells; test: Toxicity to WI38 cells (change in morphology in / growth inhibition of 25% of the cells); assay type: cell-based
[3] = system: Rhinovirus 56; test: Anti-rhinovirus activity, cytopathic effect inhibition / neutral red dye uptake, type 56; assay type: cell-based; details: Enterovirus, WI-38; Table II; read-out: MIC 50 Rhinovirus Type 56
[4] = system: Rhinovirus 1A; test: Anti-rhinovirus activity, cytopathic effect inhibition / neutral red dye uptake, type 1A; assay type: cell-based; details: Enterovirus, WI-38
[5] = system: Rhinovirus 86; test: Anti-rhinovirus activity, cytopathic effect inhibition / neutral red dye uptake, type 86; assay type: cell-based; details: Enterovirus, WI-38; Table II; read-out: MIC 50 Rhinovirus Type 86
[6] = system: Rhinovirus 23; test: Anti-rhinovirus activity, cytopathic effect inhibition / neutral red dye uptake, type 23; assay type: cell-based; details: Enterovirus, WI-38; Table II; read-out: MIC 50 Rhinovirus Type 23
[7] = system: Rhinovirus 88; test: Anti-rhinovirus activity, cytopathic effect inhibition / neutral red dye uptake, type 88; assay type: cell-based; details: Enterovirus, WI-38; Table II; read-out: MIC 50 Rhinovirus Type 88
[8] = system: 20 serotypes of rhinovirus; test: Anti-rhinovirus activity against a panel of 20 serotypes; details: Table II; numerator; denominator 20, but 10 for compound 8 and 6 for compound 30
[9] = system: Rhinovirus 17; test: Anti-rhinovirus activity, cytopathic effect inhibition / neutral red dye uptake, type 17; assay type: cell-based; details: Enterovirus, WI-38; Table II; read-out: MIC 50 Rhinovirus Type 17
[10] = system: Rhinovirus 29; test: Anti-rhinovirus activity, cytopathic effect inhibition / neutral red dye uptake, type 29; assay type: cell-based; details: Enterovirus, WI-38; Table II; one of seven commonest serotypes; read-out: MIC 50 Rhinovirus Type 29
[11] = system: Polio 1; test: microbe, parasite or virus in culture; assay type: cell-based; details: Enterovirus, read-out: MIC 50 Polio 1
[12] = system: Rhinovirus 63; test: Anti-rhinovirus activity, cytopathic effect inhibition / neutral red dye uptake, type 63; assay type: cell-based; details: Enterovirus, WI-38; Table II; read-out: MIC 50 Rhinovirus Type 63
[13] = system: Coxsacki-B1; test: Activity against other picornaviruses, Coxsacki-B1; assay type: cell-based; details: Enterovirus, read-out: MIC 50 Cox. B1
[14] = system: Rhinovirus 4; test: Anti-rhinovirus activity, cytopathic effect inhibition / neutral red dye uptake, type 4; assay type: cell-based; details: Enterovirus, WI-38; Table II; one of seven commonest serotypes; read-out: MIC 50 Rhinovirus Type 4
[15] = system: Rhinovirus 44; test: Anti-rhinovirus activity, cytopathic effect inhibition / neutral red dye uptake, type 44; assay type: cell-based; details: Enterovirus, WI-38; Table II; read-out: MIC 50 Rhinovirus Type 44
[16] = system: Echo-7; test: Activity against other picornaviruses, Echo-7; assay type: cell-based; details: Enterovirus, read-out: MIC 50 Echo 7
[17] = system: Rhinovirus 49; test: Anti-rhinovirus activity, cytopathic effect inhibition / neutral red dye uptake, type 49; assay type: cell-based; details: Enterovirus, WI-38; Table II; read-out: MIC 50 Rhinovirus Type 49
[18] = system: Coxsacki-A9; test: Activity against other picornaviruses, Coxsacki-A9; assay type: cell-based; details: Enterovirus, read-out: MIC 50 Cox. A9
[19] = system: Enterovirus serotypes; assay type: cell-based; details: for All Enterovirus Serotypes (number of serotypes active / tested): Table III, numerator, denominator 7, but 5 for compound 8
[20] = system: Rhinovirus 32; test: Anti-rhinovirus activity, cytopathic effect inhibition / neutral red dye uptake, type 32; assay type: cell-based; details: Enterovirus, WI-38; Table II; read-out: MIC 50 Rhinovirus Type 32
[21] = system: Rhinovirus 30; test: Anti-rhinovirus activity, cytopathic effect inhibition / neutral red dye uptake, type 30; assay type: cell-based; details: Enterovirus, WI-38; Table II; read-out: MIC 50 Rhinovirus Type 30
[22] = system: Echo-11; test: Activity against other picornaviruses, Echo-11; assay type: cell-based; details: Enterovirus, read-out: MIC 50 Echo 11
[23] = system: Rhinovirus 53; test: Anti-rhinovirus activity, cytopathic effect inhibition / neutral red dye uptake, type 53; assay type: cell-based; details: Enterovirus, WI-38; Table II; read-out: MIC 50 Rhinovirus Type 53
[24] = system: Rhinovirus 36; test: Anti-rhinovirus activity, cytopathic effect inhibition / neutral red dye uptake, type 36; assay type: cell-based; details: Enterovirus, WI-38; Table II; read-out: MIC 50 Rhinovirus Type 36
[25] = system: Rhinovirus 39; test: Anti-rhinovirus activity, cytopathic effect inhibition / neutral red dye uptake, type 39; assay type: cell-based; details: Enterovirus, WI-38; Table I; WI38 cells, 33° C., 3-4 days; read-out: MIC50 Rhinovirus 39
[26] = system: Coxsacki-A21; test: Activity against other picornaviruses, Coxsacki-A21; assay type: cell-based; details: Enterovirus, read-out: MIC 50 Cox. A21
[27] = system: Rhinovirus 31; test: Anti-rhinovirus activity, cytopathic effect inhibition / neutral red dye uptake, type 31; assay type: cell-based; details: Enterovirus, WI-38; Table II; one of seven commonest serotypes; read-out: MIC 50 Rhinovirus Type 31
[28] = system: Rhinovirus 1B; test: Anti-rhinovirus activity, cytopathic effect inhibition / neutral red dye uptake, type 1B; assay type: cell-based; details: Enterovirus, WI-38; Table II; one of seven commonest serotypes; read-out: MIC 50 Rhinovirus Type 1B
[29] = system: Coxsacki-B4; test: Activity against other picornaviruses, Coxsacki-B4; assay type: cell-based; details: Enterovirus, read-out: MIC 50 Cox. B4
[30] = system: Rhinovirus 2; test: Anti-rhinovirus activity, cytopathic effect inhibition / neutral red dye uptake, type 2; assay type: cell-based; details: Enterovirus, WI-38; Table II; one of seven commonest serotypes; read-out: MIC 50 Rhinovirus Type 2
[31] = system: HRV-1A and HRV-39; test: Anti-rhinovirus activity against HRV-1A and HRV-39; details: in words
[32] = Table I, concentration with change in morphology in 25% of WI38 cells
[33] = Table I, WI38 cells, 33° C., 3-4 days, NA = Not active, read-out: MIC50 Rhinovirus 1A

Cc1cc(CCCCCCCOc2ccc(C3=NCCO3)cc2)on1 [Disoxaril, reference compound]
50 µg/mL: Toxicity [2, 32] | Toxicity ([2]; Table II) | Toxicity ([2]; Table III)
17: All Rhinovirus Serotypes (number of serotypes active / tested) [8]
7: All Enterovirus Serotypes (number of serotypes active / tested) [19]
< 0.5 µg/mL: EC50 [7] | IC50 [9] | EC50 [15]
0.5 µg/mL: EC50 [5] | IC50 [14] | IC50 [21]
25 µg/mL: EC50 [3] | EC50 ([4]; Table II, one of seven commonest serotypes, read-out: MIC 50 Rhinovirus Type 1A) | EC50 [12] | EC50 [23] | EC50 [27] | IC50 [28]
> 25 µg/mL: EC50 [17] | EC50 [24] | IC50 [30]
10 µg/mL: EC50 [4, 33] | IC50 [6] | IC50 [10] | IC50 [13] | EC50 [20] | IC50 [29]
5 µg/mL: IC50 [1] | EC50 [11] | IC50 [16] | EC50 [18] | IC50 [22] | EC50 [25] | IC50 [26]

Cc1cc(CCCCCCCOc2ccc3oc4ccccc4c3c2)on1 [Compound 5]
< 0.5 µg/mL: IC50 [14] | EC50 [15]
25 µg/mL: IC50 [16] | EC50 [20]
remarkably inhibitory activity: inhibitory activity against HRV-1A and HRV-39 in vitro [31]
> 25 µg/mL: EC50 [17] | IC50 [22] | EC50 [24] | IC50 [29] | IC50 [30]
17: All Rhinovirus Serotypes (number of serotypes active / tested) [8]
100 µg/mL: Toxicity [2, 32] | Toxicity ([2]; Table II) | Toxicity ([2]; Table III)
0.5 µg/mL: EC50 [5] | EC50 [7] | IC50 [21]
5 µg/mL: IC50 [1] | EC50 [3] | EC50 [4, 33] | IC50 [6] | IC50 [10] | EC50 [18] | IC50 [26] | IC50 [28]
1 µg/mL: EC50 [25]
10 µg/mL: IC50 [9] | EC50 [11] | EC50 [12] | IC50 [13] | EC50 [23] | EC50 [27]
remarkable inhibitory activity: inhibitory activity against the members of the Entero virus family [19]
5: All Enterovirus Serotypes (number of serotypes active / tested) [19]

Cc1csc(CCCCCCOc2ccc3oc4ccccc4c3c2)n1 [Compound 27]
> 25 µg/mL: EC50 [7] | EC50 [11] | IC50 [16] | EC50 [17] | IC50 [22] | EC50 [24] | IC50 [29] | IC50 [30]
remarkable inhibitory activity: inhibitory activity against the members of the Entero virus family [19]
25 µg/mL: IC50 [10] | EC50 [12] | IC50 [14]
10 µg/mL: IC50 [1] | EC50 [4, 33] | IC50 [9] | IC50 [13] | EC50 [15] | EC50 [20] | IC50 [21] | EC50 [23] | EC50 [25] | IC50 [26] | EC50 [27]
17: All Rhinovirus Serotypes (number of serotypes active / tested) [8]
1 µg/mL: EC50 [5]
50 µg/mL: Toxicity [2, 32] | Toxicity ([2]; Table II) | Toxicity ([2]; Table III)
5 µg/mL: EC50 [3] | IC50 [6] | EC50 [18] | IC50 [28]
3: All Enterovirus Serotypes (number of serotypes active / tested) [19]
